Source: patent US20090318527A1, “INDOLE COMPOUNDS AND METHODS OF USE THEREOF” (priority 2008, published 2009)
Counter-ions that a name gives are not always drawn.

How the values were obtained:
human 5-HT2A receptor = target: T1, human 5-HT2A receptor (Homo sapiens, UniProt P28223); assay: Intracellular calcium flux assay, HEK 293 cells stably expressing 5-HT2A; type: cell-based; conditions: for 5-HT2A efficacy as percentage of the maximal 5-HT response ± SD / EC50: calcium flux, at least three independent experiments; for 5-HT2A response as percentage of the maximal 5-HT response @ 10,000: EC50 not reached; for EC50: each in triplicate, read-out: 5-HT2A mean EC50 ± SD; for Emax at 10 µM: HEK293, read-out: 5-HT2A functional activity (N/A class);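 for all read-outs here: fluorescent calcium dye read on FLIPR Tetra, peak signal above baseline within 60 s after compound addition, seven concentrations spanning 10 pM to 10 µM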
T1 construct: expressed in transfected cells; host or cells: HEK 293

human 5-HT2B receptor = target: T2, human 5-HT2B receptor (Homo sapiens, UniProt P41595); assay: Intracellular calcium flux assay, HEK 293 cells stably expressing 5-HT2B; type: cell-based; conditions: for Emax at 10 µM: HEK293, read-out: 5-HT2B functional activity (N/A class); for EC50 / Emax: calcium flux, at least three independent experiments; for EC50: each in triplicate, read-out: 5-HT2B mean EC50 ± SD; for Emax: HEK293, read-out: 5-HT2B efficacy as percentage of the maximal 5-HT response ± SD;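 for all read-outs here: calcium dye fluorescence read on a FLIPR Tetra, peak signal above baseline within 60 s after compound addition, seven-point concentration series from 10 pM up to 10 µM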
T2 construct: expressed in transfected cells; host or cells: HEK 293

5-HT2C = target: T3, 5-HT2C (Homo sapiens, UniProt P28335); assay: Intracellular calcium flux assay, HEK 293 cells stably expressing 5-HT2C; type: cell-based; design: expressed in transfected cells; host or cells: HEK 293; conditions: for Emax: HEK293, read-out: 5-HT2C efficacy as percentage of the maximal 5-HT response ± SD, at least three independent experiments, entries marked a (42, 50, 51, 52) single measurements; for EC50: read-out: 5-HT2C mean EC50 ± SD;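 for all read-outs here: calcium dye fluorescence read on FLIPR Tetra as peak signal above baseline within 60 s of compound addition, seven concentrations from 10 pM to 10 µM, each in triplicate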
T3 sequence (P28335 33-458): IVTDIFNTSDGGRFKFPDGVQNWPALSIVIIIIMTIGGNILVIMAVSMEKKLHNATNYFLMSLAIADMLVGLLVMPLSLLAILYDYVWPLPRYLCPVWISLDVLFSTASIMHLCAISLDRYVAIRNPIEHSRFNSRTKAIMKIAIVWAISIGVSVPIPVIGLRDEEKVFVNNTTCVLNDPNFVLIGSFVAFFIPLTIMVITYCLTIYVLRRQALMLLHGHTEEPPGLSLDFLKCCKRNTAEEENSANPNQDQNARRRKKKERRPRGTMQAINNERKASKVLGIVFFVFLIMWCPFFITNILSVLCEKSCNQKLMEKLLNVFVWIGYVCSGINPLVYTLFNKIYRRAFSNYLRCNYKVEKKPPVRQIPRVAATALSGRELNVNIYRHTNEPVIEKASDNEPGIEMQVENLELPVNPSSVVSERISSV

[1] = at least three independent experiments, entries marked a (42, 50, 51, 52) single measurements

T2 sequence (P41595 whole entry): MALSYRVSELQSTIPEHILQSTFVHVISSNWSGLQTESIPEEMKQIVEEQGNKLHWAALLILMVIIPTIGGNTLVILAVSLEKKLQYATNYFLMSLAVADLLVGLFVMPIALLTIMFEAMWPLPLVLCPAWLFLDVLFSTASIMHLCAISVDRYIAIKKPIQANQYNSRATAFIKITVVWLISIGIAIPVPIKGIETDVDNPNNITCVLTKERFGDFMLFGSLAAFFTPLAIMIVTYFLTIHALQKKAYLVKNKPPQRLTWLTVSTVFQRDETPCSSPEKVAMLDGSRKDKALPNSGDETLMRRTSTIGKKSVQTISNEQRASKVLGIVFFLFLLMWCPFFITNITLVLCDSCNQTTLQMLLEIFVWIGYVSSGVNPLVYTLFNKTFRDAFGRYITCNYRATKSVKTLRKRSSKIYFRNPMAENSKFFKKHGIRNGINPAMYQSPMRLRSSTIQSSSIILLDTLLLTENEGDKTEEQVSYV
T1 sequence (P28223 whole entry): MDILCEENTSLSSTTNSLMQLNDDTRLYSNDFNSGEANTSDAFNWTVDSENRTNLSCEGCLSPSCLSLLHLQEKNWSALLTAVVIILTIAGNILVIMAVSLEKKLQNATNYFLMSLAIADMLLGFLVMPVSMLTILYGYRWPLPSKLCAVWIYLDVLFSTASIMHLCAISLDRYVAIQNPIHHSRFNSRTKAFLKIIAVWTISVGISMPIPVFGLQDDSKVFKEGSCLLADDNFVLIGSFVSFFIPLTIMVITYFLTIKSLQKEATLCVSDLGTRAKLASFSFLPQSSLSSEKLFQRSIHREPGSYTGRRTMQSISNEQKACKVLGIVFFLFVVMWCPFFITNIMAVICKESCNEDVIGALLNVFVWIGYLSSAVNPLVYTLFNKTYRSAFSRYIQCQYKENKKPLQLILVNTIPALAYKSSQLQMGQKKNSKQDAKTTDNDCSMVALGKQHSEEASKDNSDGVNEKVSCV

Structure (SMILES) | melting point [°C] | 5-HT2A efficacy as percentage of the maximal 5-HT response ± SD (human 5-HT2A receptor) | 5-HT2A response as percentage of the maximal 5-HT response @ 10,000 (human 5-HT2A receptor; at 10,000 nM) | EC50 (human 5-HT2A receptor) [nM] | Emax at 10 µM (human 5-HT2B receptor; at 10,000 nM) [%] | Emax (5-HT2C) [%] | EC50 (5-HT2C; [1]) [nM] | 5-HT2B response as percentage of the maximal 5-HT response @ 10,000 (human 5-HT2B receptor; at 10,000 nM, EC50 not reached) | EC50 (human 5-HT2B receptor) [nM] | Emax at 10 µM (human 5-HT2A receptor; at 10,000 nM) [%] | Emax (human 5-HT2B receptor) [%] | 5-HT2A functional activity (N/A class) (human 5-HT2A receptor; at 10,000 nM) | 5-HT2B functional activity (N/A class) (human 5-HT2B receptor; at 10,000 nM) | 5-HT2C efficacy as percentage of the maximal 5-HT response ± SD (5-HT2C; [1])
CCCOc1c(F)ccc2c1c(CCN(C)C)cn2CCC.Cl | 142 to 145 |  |  |  |  |  |  |  |  |  |  |  |  | 
NCCc1c[nH]c2ccc(O)cc12 [Compound 5-HT, 5-hydroxytryptamine, reference compound] |  | (100%) |  |  |  |  |  |  |  |  |  |  |  | 
CCn1cc(CCN(C)C)c2c(OC)ccc(F)c21 [Compound 23, 2-(1-Ethyl-7-fluoro-4-methoxy-1H-indol-3-yl)-N,N-dimethylethanamine] |  |  | (17 ± 3.7 @ 10,000) % | > 10000 | < 10 | 71 | 13 ± 1.74 |  |  |  |  |  |  | 
CCOc1ccc(F)c2c1c(CCN(C)C)cn2CC [Compound 24, 2-(4-Ethoxy-1-ethyl-7-fluoro-1H-indol-3-yl)-N,N-dimethylethanamine] | 59 to 60 |  | (21 ± 5.5 @ 10,000) % | > 2000 |  | 77 | 57 ± 17.1 | (14 ± 4.8 @ 10,000) % | > 5000 |  |  |  |  | 
CCCOc1ccc(F)c2c1c(CCN(C)C)cn2CC [Compound 25, 2-(1-Ethyl-7-fluoro-4-propoxy-1H-indol-3-yl)-N,N-dimethylethanamine] | 49 to 50 |  |  |  |  | 75 | 168 ± 27.2 |  | 1450 | < 10 | 31 |  |  | 
CCOc1ccc(F)c2c1c(CCN(C)C)cn2C [Compound 26, 2-(4-Ethoxy-7-fluoro-1-methyl-1H-indol-3-yl)-N,N-dimethylethanamine] |  | (25 ± 4.1%) |  | 1490 |  | 82 | 43 ± 18.8 |  | 217 ± 95.9 |  | 28 |  |  | 
CCCOc1ccc(F)c2c1c(CCN(C)C)cn2C [Compound 27, 2-(7-Fluoro-1-methyl-4-propoxy-1H-indol-3-yl)-N,N-dimethylethanamine] |  |  |  |  |  | 75 | 96 ± 19.8 |  | 334 ± 88.7 | < 10 | 54 |  |  | 
CCCn1cc(CCN(C)C)c2c(OC)ccc(F)c21 [Compound 28, 2-(7-Fluoro-4-methoxy-1-propyl-1H-indol-3-yl)-N,N-dimethylethanamine] |  |  |  |  | < 10 | 45 | 76 ± 39.1 |  |  | < 10 |  |  |  | 
CCCn1cc(CCN(C)C)c2c(OCC)ccc(F)c21 [Compound 29, 2-(4-Ethoxy-7-fluoro-1-propyl-1H-indol-3-yl)-N,N-dimethylethanamine] |  |  |  |  | < 10 | 43 | 346 ± 97 |  |  | < 10 |  |  |  | 
CCCOc1ccc(F)c2c1c(CCN(C)C)cn2CCC [Compound 30, 2-(7-Fluoro-4-propoxy-1-propyl-1H-indol-3-yl)-N,N-dimethylethanamine] |  |  |  |  | < 10 | 37 | 858 ± 289 |  |  | < 10 |  |  |  | 
COc1cc(F)cc2c1c(CCN(C)C)cn2C.Cl [Compound 31, 2-(6-Fluoro-4-methoxy-1-methyl-1H-indol-3-yl)-N,N-dimethylethanamine hydrochloride] | 260.6 to 261.3 |  | (21 ± 7.9 @ 10,000) % | > 10000 |  | 87 | 9.9 ± 3.27 |  | 55 ± 7.77 |  | 51 |  |  | 
CCOc1cc(F)cc2c1c(CCN(C)C)cn2C.Cl [Compound 32, 2-(4-Ethoxy-6-fluoro-1-methyl-1H-indol-3-yl)-N,N-dimethylethanamine hydrochloride] | 202.2 to 203.3 |  | (26 ± 7.6 @ 10,000) % | > 10000 |  | 85 | 31 ± 23.6 |  | 166 ± 113 |  | 66 |  |  | 
CCCOc1cc(F)cc2c1c(CCN(C)C)cn2C.Cl [Compound 33, 2-(6-Fluoro-1-methyl-4-propoxy-1H-indol-3-yl)-N,N-dimethylethanamine hydrochloride] | 195.4 to 196.8 |  |  |  |  | 91 | 384 ± 193 |  | 182 ± 102 | < 10 | 78 |  |  | 
CCn1cc(CCN(C)C)c2c(OC)cc(F)cc21.Cl [Compound 34, 2-(1-Ethyl-6-fluoro-4-methoxy-1H-indol-3-yl)-N,N-dimethylethanamine hydrochloride] | 233.4 to 234.9 |  |  |  |  | 82 | 24 ± 8.38 |  | 397 ± 133 | < 10 | 21 |  |  | 
CCOc1cc(F)cc2c1c(CCN(C)C)cn2CC [Compound 35, 2-(4-Ethoxy-1-ethyl-6-fluoro-1H-indol-3-yl)-N,N-dimethylethanamine] | 77.1 to 78.2 |  | (14 ± 4.8 @ 10,000) % | > 10000 |  | 88 | 246 ± 185 |  | 777 ± 383 |  | 47 |  |  | 
CCCOc1cc(F)cc2c1c(CCN(C)C)cn2CC [Compound 36, 2-(1-Ethyl-6-fluoro-4-propoxy-1H-indol-3-yl)-N,N-dimethylethanamine] | 68.9 to 70.1 |  |  |  |  | 87 | 659 ± 352 |  | 543 ± 325 | < 10 |  |  |  | 
CCCn1cc(CCN(C)C)c2c(OC)cc(F)cc21.Cl [Compound 37, 2-(6-Fluoro-4-methoxy-1-propyl-1H-indol-3-yl)-N,N-dimethylethanamine hydrochloride] | 119.8 to 121.3 |  |  |  | < 10 | 69 | 354 ± 195 |  |  | < 10 |  |  |  | 
CCCn1cc(CCN(C)C)c2c(OCC)cc(F)cc21.Cl [Compound 38, 2-(4-Ethoxy-6-fluoro-1-propyl-1H-indol-3-yl)-N,N-dimethylethanamine hydrochloride] | 154 to 156 |  |  |  | < 10 | 80 | 1250 |  |  | < 10 |  |  |  | 
CCCOc1cc(F)cc2c1c(CCN(C)C)cn2CCC.Cl [Compound 39, 2-(6-Fluoro-4-propoxy-1-propyl-1H-indol-3-yl)-N,N-dimethylethanamine hydrochloride] | 170.3 to 171.4 |  |  |  |  | 65 | 762 ± 469 |  | 3120 | < 10 | 26 |  |  | 
CCOc1c(F)ccc2c1c(CCN(C)C)cn2C [Compound 59, 2-(4-Ethoxy-5-fluoro-1-methyl-1H-indol-3-yl)-N,N-dimethylethanamine hydrochloride] |  |  |  |  | < 10 | 51 | 0.82 ± 0.23 |  |  | < 10 |  |  |  | 
CCn1cc(CCN(C)C)c2cc(F)c(O)cc21 [Compound 83, 3-[2-(Dimethylamino-ethyl)]-1-ethyl-5-fluoro-1H-indol-6-ol] |  |  |  |  |  |  | 221 ± 27 |  |  |  |  | N/A (N/A: <10% max HT @ 10,000 nM) | N/A (N/A: <10% max HT @ 10,000 nM) | (73 ± 4%)
